# Molecular target: T1, estrogen receptor (Homo sapiens, UniProt P03372)
# T1 construct: endogenous in cells; host or cells: ECC-1 cells
# T1 sequence (P03372 1-595): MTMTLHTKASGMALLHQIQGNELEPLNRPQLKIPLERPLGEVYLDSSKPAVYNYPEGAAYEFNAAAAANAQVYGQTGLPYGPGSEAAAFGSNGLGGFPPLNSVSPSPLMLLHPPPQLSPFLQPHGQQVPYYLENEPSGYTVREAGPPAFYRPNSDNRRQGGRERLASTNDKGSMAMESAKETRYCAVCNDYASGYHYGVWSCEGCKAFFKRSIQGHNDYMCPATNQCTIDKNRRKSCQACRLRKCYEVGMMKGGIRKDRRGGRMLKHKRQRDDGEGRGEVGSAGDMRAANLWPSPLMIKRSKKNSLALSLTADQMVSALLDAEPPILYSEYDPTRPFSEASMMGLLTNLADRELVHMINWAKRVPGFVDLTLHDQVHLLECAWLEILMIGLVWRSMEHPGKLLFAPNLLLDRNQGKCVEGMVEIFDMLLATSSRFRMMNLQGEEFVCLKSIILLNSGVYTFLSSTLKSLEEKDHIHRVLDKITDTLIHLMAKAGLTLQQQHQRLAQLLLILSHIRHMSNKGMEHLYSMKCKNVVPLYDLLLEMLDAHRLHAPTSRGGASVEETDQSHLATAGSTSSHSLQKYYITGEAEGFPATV
# Assay: AP assay (alkaline phosphatase activity in ECC-1 cells), agonist mode (absence of E2) and antagonist mode (presence of 500 pM E2)
# Assay type: cell-based
# Settings: 3 days, AP activity normalized to 500 pM E2 alone, agonist and antagonist mode combined
# Outline: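 ECC-1 cells in hormone-depleted medium treated with compounds for 3 days, without E2 (agonist mode) or with 500 pM E2 (antagonist mode). AP activity read at 405 nm after p-nitrophenyl phosphate substrate, 40 min at 42 °C. Signal normalized to 500 pM E2 alone.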
row,Structure (SMILES),"Activity (estrogen receptor modulation, e.g., agonism and antagonism)"
1,"COCC1CN(Cc2cc3cc([C@@H]4c5[nH]c6ccccc6c5C[C@@H](C)N4CC(C)(C)F)ccc3[nH]2)C1 [Compound I-51, (1R,3R)-2-(2-fluoro-2-methyl-propyl)-1-[2-[[3-(methoxymethyl)azetidin-1-yl]methyl]-1H-indol-5-yl]-3-methyl-1,3,4,9-tetrahydropyrido[3,4-b]indole]",+ (estrogen receptor agonism having (i) at least 80% increase in the E2-normalized signal in the AP assay (agonist mode) and (ii) no more than 80% reduction in the E2-normalized signal in the AP assay (antagonist mode))
2,"C[C@@H]1Cc2c([nH]c3ccccc23)[C@@H](c2ccc3[nH]c(CN4CC(N(C)C)C4)cc3c2)N1CC(C)(C)F [Compound I-99, 1-[[5-[(1R,3R)-2-(2-fluoro-2-methyl-propyl)-3-methyl-1,3,4,9-tetrahydropyrido[3,4-b]indol-1-yl]-1H-indol-2-yl]methyl]-N,N-dimethyl-azetidin-3-amine]",++ (estrogen receptor antagonism having (i) between 10% and 80% increase in the E2-normalized signal in the AP assay (agonist mode) and (ii) between 10% and 80% reduction in the E2-normalized signal in the AP assay (antagonist mode))
3,"C[C@@H]1Cc2c([nH]c3ccccc23)[C@@H](c2c[nH]c3ncc(CN4CC(CF)C4)cc23)N1CC(C)(C)F [Compound I-60, (1R,3R)-1-[5-[[3-(fluoromethyl)azetidin-1-yl]methyl]-1H-pyrrolo[2,3-b]pyridin-3-yl]-2-(2-fluoro-2-methyl-propyl)-3-methyl-1,3,4,9-tetrahydropyrido[3,4-b]indole]",+ (estrogen receptor agonism having (i) at least 80% increase in the E2-normalized signal in the AP assay (agonist mode) and (ii) no more than 80% reduction in the E2-normalized signal in the AP assay (antagonist mode))
4,"C[C@@H]1Cc2c([nH]c3ccccc23)[C@@H](c2c[nH]c3cc(CC4CN(C)C4)ccc23)N1CC(C)(C)F [Compound I-30, (1R,3R)-2-(2-fluoro-2-methyl-propyl)-3-methyl-1-[6-[(1-methylazetidin-3-yl)methyl]-1H-indol-3-yl]-1,3,4,9-tetrahydropyrido[3,4-b]indole]",+ (estrogen receptor agonism having (i) at least 80% increase in the E2-normalized signal in the AP assay (agonist mode) and (ii) no more than 80% reduction in the E2-normalized signal in the AP assay (antagonist mode))
5,"CC1CN(Cc2ccc3c([C@@H]4c5[nH]c6ccccc6c5C[C@@H](C)N4CC(F)F)n[nH]c3c2)C1 [Compound I-37, (1S,3R)-2-(2,2-difluoroethyl)-3-methyl-1-(6-((3-methylazetidin-1-yl)methyl)-1H-indazol-3-yl)-2,3,4,9-tetrahydro-1H-pyrido[3,4-b]indole]",++ (estrogen receptor antagonism having (i) between 10% and 80% increase in the E2-normalized signal in the AP assay (agonist mode) and (ii) between 10% and 80% reduction in the E2-normalized signal in the AP assay (antagonist mode))

# Source: US20260355165A1, “2,3,4,9-TETRAHYDRO-1H-PYRIDO[3,4-B]INDOLE DERIVATIVES AS ESTROGEN RECEPTOR MODULATORS FOR THE TREATMENT OF CANCER” (Olema Pharmaceuticals, Inc., priority 2022, published 2026)
